Results: PubChem BioAssay (NCI)
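Each compound was tested at five concentrations against cells in 96-well plates for 48 hours. Here, GI50 denotes the concentration required for 50% inhibition of growth. The concentration for full growth arrest is given as TGI.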

Tests used:
Assay in all cases: NCI anticancer screen, dose series, 48 h
BT-549 breast = test system: BT-549 breast
CCRF-CEM leukemia = test system: CCRF-CEM leukemia
HL-60(TB) leukemia = test system: HL-60(TB) leukemia
KM12 colon = test system: KM12 colon
MDA-MB-435 = test system: MDA-MB-435
OVCAR-4 ovarian = test system: OVCAR-4 ovarian
RPMI-8226 leukemia = test system: RPMI-8226 leukemia
SF-295 CNS = test system: SF-295 CNS
SK-OV-3 ovarian = test system: SK-OV-3 ovarian
UACC-257 melanoma = test system: UACC-257 melanoma

Row | SMILES | TGI (BT-549 breast) | TGI (CCRF-CEM leukemia) | TGI (HL-60(TB) leukemia) | TGI (KM12 colon) | TGI (MDA-MB-435) | TGI (OVCAR-4 ovarian) | TGI (RPMI-8226 leukemia) | TGI (SF-295 CNS) | TGI (SK-OV-3 ovarian) | TGI (UACC-257 melanoma) | GI50 (HL-60(TB) leukemia) | GI50 (RPMI-8226 leukemia)
1 | O=C(Nc1cccc(-c2cn3ccccc3n2)c1)c1ccncc1 | 72 µM | 82.5 µM | 45.8 µM | > 100 µM | > 100 µM | > 100 µM | 39.7 µM | > 100 µM | > 100 µM | 73.5 µM |  | 
2 | COc1cc(/C=C2/SC(c3ccccc3)N(c3cccc([N+](=O)[O-])c3)C2=O)cc(OC)c1OC (centres undefined) | > 100 µM | > 100 µM | > 100 µM | > 100 µM | 86.4 µM | > 100 µM | > 100 µM | > 100 µM | > 100 µM | > 100 µM |  | 
3 | COC1/C=C/C(C)C(C(C)C(OC)C(C)CCC(=O)C(C)C(CCC(=O)O)OC)OC(=O)/C=C/C=C(\C)CC(OC)CC2=CC(=O)O[C@@H](C(C)C(OC)CC(OC)/C=C/C(C)C(OC)C1)[C@H]2O (some centres undefined) | 2.85 µM | > 1.58 µM | 1 µM | > 5 µM | > 5 µM | > 5 µM | > 3.94 µM | > 5 µM | 4.06 µM | > 3.9 µM |  | 
4 | CC(C)(C)N1Cc2ccccc2/C(=C/Sc2ccccc2)C1=O | 20.1 µM | > 100 µM | 39.8 µM | 31.4 µM | 20.1 µM | 19.6 µM | 26 µM | 33.8 µM | 31.2 µM | 31.2 µM |  | 
5 | CC1(C)[C@@H]2C[C@H]1c1cnc(-c3ccccn3)cc1C2[C@@H]1c2cc(-c3ccccn3)ncc2[C@@H]2C[C@H]1C2(C)C (some centres undefined) | > 100 µM | > 100 µM | > 100 µM | > 100 µM | > 100 µM | 85.3 µM | > 100 µM | > 100 µM | > 100 µM | > 100 µM |  | 
6 | Cc1ccc(O)c(C2=NNC(c3cccc(Br)c3)C2)c1 (centres undefined) | > 100 µM | > 100 µM | > 100 µM | > 100 µM | 46.8 µM |  | > 100 µM | > 100 µM | > 100 µM | > 100 µM |  | 
7 | CSc1ncc2c(n1)-c1ccccc1OC2N1CCCC1 (centres undefined) | > 100 µM | > 100 µM | > 100 µM | > 100 µM | > 100 µM | > 100 µM | > 100 µM | > 100 µM | > 100 µM | > 100 µM |  | 
8 | CCOC(=O)C(Cc1ccccc1)(Cc1ccc(O)cn1)NC(=O)c1ccccc1 (centres undefined) | 81 µM | > 100 µM | 43.8 µM | 54.8 µM | 30.1 µM | 97.7 µM | > 100 µM | > 100 µM | > 100 µM | 95 µM |  | 
9 | N#CCc1nc(C#N)c(N)o1 | > 100 µM | > 100 µM | > 100 µM | > 100 µM | > 100 µM | > 100 µM | > 100 µM | > 100 µM | > 100 µM | > 100 µM | > 100 µM | > 100 µM
10 | COC(=O)C1(C(=O)OC)N=C(C)OC1C(C)C (centres undefined) | > 100 µM | > 100 µM | > 100 µM | > 100 µM | > 100 µM | > 100 µM | > 100 µM | > 100 µM | > 100 µM | > 100 µM |  | 
11 | Cc1[nH]c(-c2ccccc2)c(-c2ccc(Cl)cc2)c1C(=O)ONC(=O)c1ccccc1 | 9.94 µM | > 21.8 µM | 3.29 µM | > 48.3 µM | 11.9 µM |  | > 48.4 µM | 4.74 µM | 32.4 µM | 20.8 µM |  | 
12 | CCCCN(c1ccccc1)c1ncnc2c1cnn2C | 62.1 µM | 49.6 µM | 47.6 µM | > 100 µM | > 100 µM | > 100 µM | 48 µM | > 100 µM | > 100 µM | 95.8 µM |  | 
13 | CCCCCCCCCCCCCCCCNc1nc(=O)n(C2CC(O)C(CO)O2)cc1F (centres undefined) | 32.4 µM |  | 27.7 µM | 34 µM | 24.6 µM | 40.4 µM | 37.6 µM | 30.1 µM | 28.3 µM | 33.9 µM |  | 
14 | CN1C2CC(=O)CC1[C@@H]1OC(c3ccccc3)O[C@H]21 (some centres undefined) | > 100 µM | > 100 µM | > 100 µM | > 100 µM | > 100 µM | > 100 µM | > 100 µM | > 100 µM | > 100 µM | > 100 µM |  | 
15 | Cc1ccc(S(=O)(=O)N2CCN(CCN(C)CCN3CCN(S(=O)(=O)c4ccc(C)cc4)CC3)CC2)cc1 | 30.6 µM | 44.2 µM | 33.6 µM | 31.6 µM | 32 µM | 43.7 µM | 37 µM | 31.9 µM | 33.3 µM | 30.5 µM |  | 
16 | CC[N+](C)(CC)CCN1C(=O)c2ccccc2S1(=O)=O | > 100 µM | > 100 µM | > 100 µM | > 100 µM | > 100 µM | > 100 µM | > 100 µM | > 100 µM | > 100 µM | > 100 µM |  | 
17 | COc1ccc(CNc2nc(NCc3ccc(OC)cc3)nc(N3CCOCC3)n2)cc1 | > 100 µM |  | 13.6 µM | 8.09 µM | 4.66 µM | > 100 µM | 4.03 µM | 8.98 µM | > 100 µM | > 100 µM |  | 
18 | N#Cc1c2c(c(N3CCOCC3)n3c1nc1ccccc13)CCCC2 | > 100 µM | 8.48 µM | 35.5 µM | > 100 µM | 39.7 µM | 51.4 µM |  | 34.8 µM | 67.7 µM | 65.9 µM |  | 
19 | O=C(c1ccco1)N(C(=S)OCc1ccccn1)c1ccccc1 | > 100 µM | > 100 µM | > 100 µM | > 100 µM | > 100 µM |  | > 100 µM |  | > 100 µM | > 100 µM |  | 
20 | CSc1nncc(-c2cc3c(c(SC)n2)CCC3)n1 | > 100 µM | > 100 µM | > 100 µM | > 100 µM | > 100 µM | > 100 µM | > 100 µM | > 100 µM | > 100 µM | > 100 µM |  | 
21 | O=C1C=CC(=O)c2ncccc21 | 15.5 µM | 3.29 µM | 2.02 µM | 25.5 µM | 18.5 µM | 11.4 µM | > 22 µM | 23.1 µM | 37.2 µM | 11.2 µM |  | 
22 | O=C(/C=C/c1ccc([N+](=O)[O-])cc1)c1nc2ccccc2[nH]1 | > 100 µM | > 100 µM | > 29.9 µM | > 100 µM | > 100 µM | > 100 µM | 33.3 µM | > 100 µM | > 100 µM | 31.4 µM |  | 
23 | CCOC(=O)C(O)(NC(C)=O)C(F)(F)F (centres undefined) | > 100 µM | > 100 µM | > 100 µM | > 100 µM | > 100 µM | > 100 µM | > 100 µM | > 100 µM | > 100 µM | > 100 µM |  | 
24 | CCCCCCCCCCCCCCCCCCOCC(O)COP(=O)(O)OCC1OC(n2cc(F)c(=O)[nH]c2=O)CC1O (centres undefined) | 27.3 µM | 16.5 µM | 25.1 µM | 51 µM | > 52.1 µM | 32.2 µM | 22.5 µM | 19 µM | 44.8 µM | 32.1 µM |  | 
25 | O=C(NNC(=S)Nc1ccccc1)c1csc(NC(=S)NC2CCCCC2)n1 | > 100 µM | > 100 µM | > 100 µM | > 100 µM | > 100 µM |  | > 100 µM | > 100 µM | > 100 µM | 56.8 µM |  | 
26 | OC1OC(c2ccco2)C(F)(F)C(F)(F)C1(F)F (centres undefined) | > 100 µM | > 100 µM | > 100 µM | > 100 µM | > 100 µM | > 100 µM | > 100 µM | > 100 µM | > 100 µM | > 100 µM |  | 
27 | O=C1OS2(OCc3cccc4cccc2c34)c2ccccc21 (centres undefined) | > 100 µM | > 100 µM | > 100 µM | > 100 µM | > 100 µM | > 100 µM | > 100 µM | > 100 µM | > 100 µM | > 100 µM |  | 
28 | CCOC(=O)C1=C(C)NC(=S)NC1c1cccc(O)c1 (centres undefined) | > 100 µM | > 89.9 µM | 77.5 µM | > 100 µM | 38 µM | > 100 µM | > 97 µM | 93.6 µM | > 100 µM | > 100 µM |  | 
29 | Cc1cc(S(=O)(=O)Nc2nnc3cc(C(F)(F)F)cc(C)n23)c(S)cc1Cl | > 100 µM | > 100 µM | > 100 µM | > 100 µM | > 100 µM | > 100 µM | > 100 µM | > 100 µM | > 90.2 µM | > 100 µM |  | 
30 | COc1ccc(-c2c(C#N)c(-c3ccccc3)n(NS(=O)(=O)c3ccccc3)c(=O)c2C#N)cc1 | > 100 µM | > 100 µM | > 100 µM | > 100 µM | > 100 µM | > 100 µM | 68.8 µM | > 100 µM | > 100 µM | > 100 µM |  | 
